Results: the supplement of paper PMC10307832

Experiments:
Assay in all cases: relative viability (nuclei count vs DMSO), 5 days (fraction); higher = more cells survive
NCI-H661 = test system: NCI-H661
Summary of the method: (§1)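 Medians of duplicate plates are given as relative viability. That measure is the nuclei count in treated wells divided by the count in vehicle wells. Counts were taken on 4× images of lung cancer cell lines in 1536-well plates, 5 days after pin-tool dosing the day after seeding with one drug alone or a fixed anchor-drug dose plus five library-drug doses (not always all listed) in √10 steps.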

NCI-H2009 = test system: NCI-H2009
Summary of the method: as §1

CAL-12T = test system: CAL-12T
Summary of the method: as §1

NCI-H3122 = test system: NCI-H3122
Summary of the method: as §1

NCI-H1437 = test system: NCI-H1437
Summary of the method: as §1

NCI-H1666 = test system: NCI-H1666
Summary of the method: as §1

LK-2 = test system: LK-2
Summary of the method: as §1

NCI-H727 = test system: NCI-H727
Summary of the method: as §1

ABC-1 = test system: ABC-1
Summary of the method: as §1

EKVX = test system: EKVX
Summary of the method: as §1

NCI-H2170 = test system: NCI-H2170
Summary of the method: as §1

HARA = test system: HARA
Summary of the method: as §1

201T = test system: 201T
Summary of the method: as §1

SW 900 = test system: SW 900
Summary of the method: as §1

PC-14 = test system: PC-14
Summary of the method: as §1

COR-L 105 = test system: COR-L 105
Summary of the method: as §1

BEN = test system: BEN
Summary of the method: as §1

NCI-H441 = test system: NCI-H441
Summary of the method: as §1

NCI-H2023 = test system: NCI-H2023
Summary of the method: as §1

LU99A = test system: LU99A
Summary of the method: as §1

NCI-H838 = test system: NCI-H838
Summary of the method: as §1

NCI-H1650 = test system: NCI-H1650
Summary of the method: as §1

COR-L23 = test system: COR-L23
Summary of the method: as §1

Compound `C[C@@H]1CN(CC(=O)Nc2ccc3c(c2)Cc2cccc(-c4cc(=O)cc(N5CCOCC5)o4)c2S3)C[C@H](C)O1` + CCNC(=O)c1noc(-c2cc(C(C)C)c(O)cc2O)c1-c1ccc(CN2CCOCC2)cc1 [Luminespib] (partner 0.01 µM) has a relative viability (NCI-H661; first compound 0.04 µM) of 0.964, a relative viability (NCI-H661; first compound 0.1265 µM) of 0.938 and a relative viability (NCI-H661; first compound 0.4 µM) of 0.97. It also gave a relative viability (NCI-H661; first compound 4 µM) of 0.813, a relative viability (NCI-H2009; first compound 0.04 µM) of 1.01 and a relative viability (NCI-H2009; first compound 0.1265 µM) of 0.995. The relative viability (NCI-H2009; first compound 0.4 µM) was 0.983, the relative viability (NCI-H2009; first compound 4 µM) was 0.804 and the relative viability (CAL-12T; first compound 0.04 µM) was 0.302. It also gave a relative viability (CAL-12T; first compound 0.1265 µM) of 0.408, a relative viability (CAL-12T; first compound 0.4 µM) of 0.613 and a relative viability (CAL-12T; first compound 4 µM) of 0.168. For the same compound, the relative viability (NCI-H3122; first compound 0.04 µM) was 0.0752, the relative viability (NCI-H3122; first compound 0.1265 µM) was 0.102 and the relative viability (NCI-H3122; first compound 0.4 µM) was 0.0706. The relative viability (NCI-H3122; first compound 4 µM) was 0.0744, the relative viability (NCI-H1437; first compound 0.04 µM) was 1.2 and the relative viability (NCI-H1437; first compound 0.1265 µM) was 1.16. It also gave a relative viability (NCI-H1437; first compound 0.4 µM) of 1.22, a relative viability (NCI-H1437; first compound 4 µM) of 0.891 and a relative viability (NCI-H1666; first compound 0.04 µM) of 1. The relative viability (NCI-H1666; first compound 0.1265 µM) was 1.09, the relative viability (NCI-H1666; first compound 0.4 µM) was 1.12 and the relative viability (NCI-H1666; first compound 4 µM) was 0.905. It also gave a relative viability (LK-2; first compound 0.1265 µM) of 0.202, a relative viability (LK-2; first compound 0.4 µM) of 0.24 and a relative viability (LK-2; first compound 4 µM) of 0.188. It also gave a relative viability (NCI-H727; first compound 0.04 µM) of 0.362, a relative viability (NCI-H727; first compound 0.1265 µM) of 0.603 and a relative viability (NCI-H727; first compound 0.4 µM) of 0.37. The relative viability (NCI-H727; first compound 4 µM) was 0.388, the relative viability (ABC-1; first compound 0.1265 µM) was 0.64 and the relative viability (ABC-1; first compound 0.4 µM) was 0.633. It also gave a relative viability (ABC-1; first compound 4 µM) of 0.521, a relative viability (EKVX; first compound 0.04 µM) of 0.802 and a relative viability (EKVX; first compound 0.1265 µM) of 0.874. For the same compound, the relative viability (EKVX; first compound 0.4 µM) was 0.955, the relative viability (EKVX; first compound 4 µM) was 0.814 and the relative viability (NCI-H2170; first compound 0.04 µM) was 0.661. For the same compound, the relative viability (NCI-H2170; first compound 0.1265 µM) was 0.67, the relative viability (NCI-H2170; first compound 0.4 µM) was 0.677 and the relative viability (NCI-H2170; first compound 4 µM) was 0.86. For the same compound, the relative viability (HARA; first compound 0.1265 µM) was 0.675, the relative viability (HARA; first compound 0.4 µM) was 0.471 and the relative viability (HARA; first compound 4 µM) was 0.89. It also gave a relative viability (201T; first compound 0.04 µM) of 1.06, a relative viability (201T; first compound 0.1265 µM) of 1.05 and a relative viability (201T; first compound 0.4 µM) of 1.04. The relative viability (201T; first compound 4 µM) was 1.01, the relative viability (SW 900; first compound 0.04 µM) was 0.166 and the relative viability (SW 900; first compound 0.1265 µM) was 0.165. It also gave a relative viability (SW 900; first compound 0.4 µM) of 0.169, a relative viability (SW 900; first compound 4 µM) of 0.178 and a relative viability (PC-14; first compound 0.04 µM) of 0.142. It also gave a relative viability (PC-14; first compound 0.1265 µM) of 0.122, a relative viability (PC-14; first compound 0.4 µM) of 0.15 and a relative viability (PC-14; first compound 4 µM) of 0.144. The relative viability (COR-L 105; first compound 0.04 µM) was 0.882, the relative viability (COR-L 105; first compound 0.1265 µM) was 0.719 and the relative viability (COR-L 105; first compound 0.4 µM) was 0.887. The relative viability (COR-L 105; first compound 4 µM) was 0.783, the relative viability (BEN; first compound 0.04 µM) was 0.264 and the relative viability (BEN; first compound 0.1265 µM) was 0.252. The relative viability (BEN; first compound 0.4 µM) was 0.463, the relative viability (BEN; first compound 4 µM) was 0.322 and the relative viability (NCI-H441; first compound 0.04 µM) was 0.305. For the same compound, the relative viability (NCI-H441; first compound 0.1265 µM) was 0.354, the relative viability (NCI-H441; first compound 0.4 µM) was 0.274 and the relative viability (NCI-H441; first compound 4 µM) was 0.309. It also gave a relative viability (NCI-H2023; first compound 0.04 µM) of 0.691, a relative viability (NCI-H2023; first compound 0.1265 µM) of 0.75 and a relative viability (NCI-H2023; first compound 0.4 µM) of 0.543. It also gave a relative viability (NCI-H2023; first compound 4 µM) of 0.37, a relative viability (LU99A; first compound 0.04 µM) of 0.304 and a relative viability (LU99A; first compound 0.1265 µM) of 0.192. For the same compound, the relative viability (LU99A; first compound 0.4 µM) was 0.26, the relative viability (LU99A; first compound 4 µM) was 0.231 and the relative viability (NCI-H838; first compound 0.04 µM) was 0.383. For the same compound, the relative viability (NCI-H838; first compound 0.1265 µM) was 0.278, the relative viability (NCI-H838; first compound 0.4 µM) was 0.286 and the relative viability (NCI-H838; first compound 4 µM) was 0.258. For the same compound, the relative viability (NCI-H1650; first compound 0.04 µM) was 0.212, the relative viability (NCI-H1650; first compound 0.1265 µM) was 0.23 and the relative viability (NCI-H1650; first compound 0.4 µM) was 0.18. It also gave a relative viability (NCI-H1650; first compound 4 µM) of 0.171, a relative viability (COR-L23; first compound 0.04 µM) of 0.793 and a relative viability (COR-L23; first compound 0.1265 µM) of 0.705. The relative viability (COR-L23; first compound 0.4 µM) was 0.729 and the relative viability (COR-L23; first compound 4 µM) was 0.458.
